Source: PubChem BioAssay AID1745844 (Carcinogenic Potency Database (CPDB), 2022)
Calls of active or inactive are those of the source. The rule behind the calls is not given here.

System: rodent lifetime carcinogenesis bioassay, tumor incidence TD50
Assay: chronic cancer bioassays in animals – CPDB, compiled studies (AID 1745844)

For `O=NN1CCN(N=O)CC1`, the TD50 (mouse, strain C17, females, by gavage, site: forestomach, lesion: squamous-cell carcinoma, dosed 40 weeks, study length 104 weeks) was 4.66 mg/kg/day, the TD50 (mouse, strain C17, females, by gavage, site: uterus, lesion: reticulum-cell neoplasm, type A, dosed 40 weeks, study length 104 weeks) was 4.13 mg/kg/day and the TD50 (mouse, strain C17, males, by gavage, site: forestomach, lesion: squamous-cell carcinoma, dosed 40 weeks, study length 104 weeks) was 2.01 mg/kg/day. The carcinogen call (mouse, strain Swiss, females, in drinking water, site: any site (literature study), lesion: several types, types named in the paper, dosed 52 weeks, study length 100 weeks) was “positive”, the TD50 (mouse, strain Swiss, males, in drinking water, site: any site (literature study), lesion: several types, types named in the paper, dosed 52 weeks, study length 100 weeks) was 8.24 mg/kg/day and the TD50 (mouse, strain Swiss, males, in drinking water, site: liver, lesion: hepatocellular carcinoma, dosed 52 weeks, study length 100 weeks) was 51.9 mg/kg/day. The TD50 (mouse, strain Swiss, males, in drinking water, site: lung, lesion: adenoma, dosed 52 weeks, study length 100 weeks) was 8.7 mg/kg/day.

In the case of `Cc1cccc(Nc2cc(Cl)nc(SCC(=O)O)n2)c1C`, the carcinogen call (hamster, strain Syrian, MB strain, males, in feed, site: liver, lesion: several types, types named in the paper, dosed 60 weeks, study length 60 weeks) is reported as “negative (inactive)”, the carcinogen call (mouse, strain CSb, males, in feed, site: liver, lesion: hepatocellular carcinoma, dosed 53 weeks, study length 63 weeks) is reported as “positive” and the TD50 (rat, strain F344/DuCrj, males, in feed, site: liver, lesion: several types, types named in the paper, dosed 52 weeks, study length 52 weeks) is reported as 4.26 mg/kg/day. The carcinogen call (rat, strain F344/DuCrj, males, in feed, site: liver, lesion: several types, types named in the paper, dosed 78 weeks, study length 78 weeks) was “positive”, the TD50 (rat, strain Fischer 344, males, in feed, site: liver, lesion: hepatocellular adenoma, dosed 37 weeks, study length 52 weeks) was 95.1 mg/kg/day and the TD50 (rat, strain Fischer 344, males, in feed, site: liver, lesion: hepatocellular adenoma, dosed 37 weeks, study length 104 weeks) was 190 mg/kg/day. For the same molecule, the TD50 (rat, strain Fischer 344, males, in feed, site: liver, lesion: hepatocellular adenoma, dosed 52 weeks, study length 52 weeks) was 2.29 mg/kg/day, the TD50 (rat, strain Fischer 344, males, in feed, site: liver, lesion: hepatocellular adenoma, dosed 52 weeks, study length 104 weeks) was 84.3 mg/kg/day and the carcinogen call (rat, strain Fischer 344, males, in feed, site: liver, lesion: hepatocellular carcinoma, trabecular, dosed 69 weeks, study length 69 weeks) was “positive”. For the same molecule, the TD50 (rat, strain Fischer 344, males, in feed, site: liver, lesion: hepatocellular carcinoma, dosed 37 weeks, study length 104 weeks) was 92.6 mg/kg/day, the TD50 (rat, strain Fischer 344, males, in feed, site: liver, lesion: hepatocellular carcinoma, dosed 52 weeks, study length 52 weeks) was 19.2 mg/kg/day and the TD50 (rat, strain Fischer 344, males, in feed, site: liver, lesion: hepatocellular carcinoma, dosed 52 weeks, study length 104 weeks) was 26.8 mg/kg/day. For the same molecule, the carcinogen call (rat, strain Fischer 344, males, in feed, site: liver, lesion: hepatocellular carcinoma, dosed 65 weeks, study length 65 weeks) was “positive”, the TD50 (rat, strain Fischer 344, males, in feed, site: liver, lesion: several types, types named in the paper, dosed 37 weeks, study length 104 weeks) was 60 mg/kg/day and the carcinogen call (rat, strain Fischer 344, males, in feed, site: liver, lesion: several types, types named in the paper, dosed 52 weeks, study length 52 weeks) was “positive”. The TD50 (rat, strain Fischer 344, males, in feed, site: liver, lesion: several types, types named in the paper, dosed 52 weeks, study length 104 weeks) was 22.9 mg/kg/day and the carcinogen call (rat, strain Sprague-Dawley, males, in feed, site: liver, lesion: several types, types named in the paper, dosed 60 weeks, study length 60 weeks) was “positive”.

With `CC(Cl)C=O` (stereo unspecified) the TD50 (mouse, strain Ha/ICR, females, by gavage, site: forestomach, lesion: one or several types, types not named, dosed 89 weeks, study length 89 weeks) was 12.9 mg/kg/day and the TD50 (mouse, strain Ha/ICR, males, by gavage, site: forestomach, lesion: one or several types, types not named, dosed 89 weeks, study length 89 weeks) was 22.7 mg/kg/day.

For `CC1=C(C(=O)OCCN(Cc2ccccc2)c2ccccc2)C(c2cccc([N+](=O)[O-])c2)C(P2(=O)OCC(C)(C)CO2)=C(C)N1` (stereo unspecified), the carcinogen call (mouse, strain B6C3F1, females, in feed, site: any site (literature study), lesion: several types, types named in the paper, dosed 104 weeks, study length 104 weeks) was “negative (inactive)”, the TD50 (mouse, strain B6C3F1, females, in feed, site: liver, lesion: hepatocellular adenoma, dosed 104 weeks, study length 104 weeks) was 11500 mg/kg/day (inactive) and the TD50 (mouse, strain B6C3F1, females, in feed, site: liver, lesion: hepatocellular carcinoma, dosed 104 weeks, study length 104 weeks) was 7430 mg/kg/day (inactive). The carcinogen call (mouse, strain B6C3F1, females, in feed, site: lung, lesion: alveolar/bronchiolar adenoma, dosed 104 weeks, study length 104 weeks) was “negative (inactive)”, the TD50 (mouse, strain B6C3F1, females, in feed, site: lung, lesion: alveolar/bronchiolar carcinoma, dosed 104 weeks, study length 104 weeks) was 12300 mg/kg/day (inactive) and the TD50 (mouse, strain B6C3F1, females, in feed, site: lymph node, lesion: malignant lymphoma, dosed 104 weeks, study length 104 weeks) was 276 mg/kg/day (inactive). The carcinogen call (mouse, strain B6C3F1, males, in feed, site: any site (literature study), lesion: several types, types named in the paper, dosed 104 weeks, study length 104 weeks) was “negative (inactive)”, the carcinogen call (mouse, strain B6C3F1, males, in feed, site: liver, lesion: hepatocellular adenoma, dosed 104 weeks, study length 104 weeks) was “negative (inactive)” and the carcinogen call (mouse, strain B6C3F1, males, in feed, site: liver, lesion: hepatocellular carcinoma, dosed 104 weeks, study length 104 weeks) was “negative (inactive)”. The carcinogen call (mouse, strain B6C3F1, males, in feed, site: lung, lesion: alveolar/bronchiolar adenoma, dosed 104 weeks, study length 104 weeks) was “negative (inactive)”, the carcinogen call (mouse, strain B6C3F1, males, in feed, site: lung, lesion: alveolar/bronchiolar carcinoma, dosed 104 weeks, study length 104 weeks) was “negative (inactive)” and the TD50 (rat, strain F344/DuCrj, females, in feed, site: any site (literature study), lesion: several types, types named in the paper, dosed 104 weeks, study length 104 weeks) was 244 mg/kg/day (inactive). For the same molecule, the carcinogen call (rat, strain F344/DuCrj, females, in feed, site: liver, lesion: hepatocellular adenoma, dosed 104 weeks, study length 104 weeks) was “negative (inactive)”, the carcinogen call (rat, strain F344/DuCrj, males, in feed, site: any site (literature study), lesion: several types, types named in the paper, dosed 104 weeks, study length 104 weeks) was “negative (inactive)” and the TD50 (rat, strain F344/DuCrj, males, in feed, site: liver, lesion: several types, types named in the paper, dosed 104 weeks, study length 104 weeks) was 2310 mg/kg/day (inactive).
